Assay results reported in BindingDB's records for doi:10.1016/j.bmcl.2006.03.040 (Merck Research Laboratories, 2006).

How the values were obtained:
[1] = biological target: Kinesin-like protein KIF11 (Homo sapiens, UniProt P52732); experiment: Kinesin ATPase In Vitro Assay; details: pH 7; 23 °C
Protocol: The kinesin motor domain is incubated with microtubules, 1 mM ATP (1: 1 MgCl2 : Na-ATP), and compound at 23°C in buffer. After reaction was terminated, free ph osphate from the ATP hydrolysis reaction is measured via a quinaldine red/ammoni um molybdate assay. The absorbance of the phospho-molybdate complex is […] Human poly-histidine tagged KSP motor domain was cloned, and protein was expressed in E. coli.

[2] = biological target: Potassium voltage-gated channel subfamily H member 2 (Homo sapiens, UniProt Q12809); experiment: hERG Radioligand Competition Assay; details: pH 7.4; 22 °C
Sequence of Potassium voltage-gated channel subfamily H member 2 (Q12809 whole entry): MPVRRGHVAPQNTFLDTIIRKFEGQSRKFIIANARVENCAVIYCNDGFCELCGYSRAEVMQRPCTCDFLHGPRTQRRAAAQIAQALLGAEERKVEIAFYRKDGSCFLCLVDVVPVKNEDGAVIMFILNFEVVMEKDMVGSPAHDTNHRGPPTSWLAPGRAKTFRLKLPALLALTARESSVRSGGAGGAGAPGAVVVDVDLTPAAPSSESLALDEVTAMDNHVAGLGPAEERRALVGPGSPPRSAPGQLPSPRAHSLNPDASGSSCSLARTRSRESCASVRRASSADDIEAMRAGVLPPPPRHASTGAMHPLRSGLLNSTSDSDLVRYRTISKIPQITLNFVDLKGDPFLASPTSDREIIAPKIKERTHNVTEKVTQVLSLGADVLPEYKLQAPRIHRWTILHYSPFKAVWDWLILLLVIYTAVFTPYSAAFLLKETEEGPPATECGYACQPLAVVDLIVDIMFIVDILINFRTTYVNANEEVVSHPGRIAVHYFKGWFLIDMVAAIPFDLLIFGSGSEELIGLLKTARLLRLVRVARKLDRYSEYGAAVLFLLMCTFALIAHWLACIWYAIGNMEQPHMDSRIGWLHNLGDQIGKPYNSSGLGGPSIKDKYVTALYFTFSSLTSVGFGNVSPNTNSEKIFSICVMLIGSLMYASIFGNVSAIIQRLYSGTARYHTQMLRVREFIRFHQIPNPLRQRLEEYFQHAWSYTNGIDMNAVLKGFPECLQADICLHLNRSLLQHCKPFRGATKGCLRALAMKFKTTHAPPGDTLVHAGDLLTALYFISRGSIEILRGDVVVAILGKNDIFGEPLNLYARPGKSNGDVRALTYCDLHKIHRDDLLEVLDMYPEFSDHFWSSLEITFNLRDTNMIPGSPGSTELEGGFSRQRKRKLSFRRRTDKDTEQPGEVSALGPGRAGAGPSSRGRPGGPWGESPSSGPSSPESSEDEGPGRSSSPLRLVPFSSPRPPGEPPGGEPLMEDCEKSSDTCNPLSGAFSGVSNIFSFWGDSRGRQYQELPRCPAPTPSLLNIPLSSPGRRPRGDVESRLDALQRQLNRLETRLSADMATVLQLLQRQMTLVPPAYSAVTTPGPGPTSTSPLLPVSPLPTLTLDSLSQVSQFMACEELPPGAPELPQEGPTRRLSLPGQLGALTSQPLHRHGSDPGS
Protocol: The hERG IC50 values were determined by radioligand competition experiments using membrane preparations from human embryonic kidney cells that stably express hERG.

Sequence of Kinesin-like protein KIF11 (P52732 whole entry, looked up, the tested form may be a part): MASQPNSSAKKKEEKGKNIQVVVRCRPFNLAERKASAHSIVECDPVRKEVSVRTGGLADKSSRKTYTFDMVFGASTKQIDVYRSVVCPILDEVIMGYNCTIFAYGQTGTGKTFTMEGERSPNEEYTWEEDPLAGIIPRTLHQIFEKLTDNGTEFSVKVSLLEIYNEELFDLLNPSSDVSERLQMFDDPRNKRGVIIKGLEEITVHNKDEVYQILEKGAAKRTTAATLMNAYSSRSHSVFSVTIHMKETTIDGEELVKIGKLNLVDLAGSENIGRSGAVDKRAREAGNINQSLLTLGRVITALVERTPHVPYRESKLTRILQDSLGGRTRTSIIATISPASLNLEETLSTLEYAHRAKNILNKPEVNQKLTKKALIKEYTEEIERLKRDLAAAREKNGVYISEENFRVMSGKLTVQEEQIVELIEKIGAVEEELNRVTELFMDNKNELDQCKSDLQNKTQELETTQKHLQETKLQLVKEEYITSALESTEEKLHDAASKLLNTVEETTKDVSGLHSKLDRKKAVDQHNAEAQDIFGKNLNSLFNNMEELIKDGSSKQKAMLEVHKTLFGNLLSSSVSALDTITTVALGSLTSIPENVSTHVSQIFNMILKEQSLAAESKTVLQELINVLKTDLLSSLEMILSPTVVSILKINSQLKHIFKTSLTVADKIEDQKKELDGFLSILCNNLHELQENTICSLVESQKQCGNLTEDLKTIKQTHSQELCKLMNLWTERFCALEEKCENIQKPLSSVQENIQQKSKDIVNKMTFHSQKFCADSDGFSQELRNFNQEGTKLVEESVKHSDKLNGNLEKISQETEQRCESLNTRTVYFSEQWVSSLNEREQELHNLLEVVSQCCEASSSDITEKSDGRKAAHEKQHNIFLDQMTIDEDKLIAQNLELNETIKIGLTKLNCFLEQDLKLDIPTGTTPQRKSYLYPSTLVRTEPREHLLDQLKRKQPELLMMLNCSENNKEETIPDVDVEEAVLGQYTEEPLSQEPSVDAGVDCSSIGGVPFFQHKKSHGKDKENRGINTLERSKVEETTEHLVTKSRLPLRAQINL

Row | SMILES | IC50 [1] [µM] | IC50 [2] [µM]
1 | CNC(=O)N1N=C(c2cc(F)ccc2F)CC1c1ccccc1 (stereo not drawn) | 3.14 | 
2 | CC(=O)N1N=C(c2ccccc2Cl)C[C@H]1c1cccc(O)c1 [1-[(5S)-3-(2-chlorophenyl)-5-(3-hydroxyphenyl)-4,5-dihydro-1H-pyrazol-1-yl]ethan-1-one] | 0.45 | 
3 | CN(C)C(=O)N1N=C(c2cc(F)ccc2F)C[C@@]1(CCCN)c1ccccc1 [(5S)-5-(3-aminopropyl)-3-(2,5-difluorophenyl)-N,N-dimethyl-5-phenyl-4,5-dihydro-1H-pyrazole-1-carboxamide] |  | 19.3
